Measured values reported in paper PMC11032351, “Epigenetic modulation through BET bromodomain inhibitors as a novel therapeutic strategy for progranulin-deficient frontotemporal dementia” (Scientific Reports, 2024).
Where a SMILES comes first, the peptide text is derived from it. [ ]: non-standard residue; d: D form. ξ: configuration not given here. Aoe(9ξ) = N[C@@H](CCCCCC(=O)C1CO1)C(=O)O; dPip = O=C(O)[C@H]1CCCCN1

These molecules were tested on GRN mRNA (assay: qPCR of GRN mRNA in human NPCs (enhancer screen and follow-up)). Conditions: human NPCs, 24 h, dose 1 µM, relative to DMSO.
Type: cell-based
Experimental: All compounds were purchased from commercial vendors. All compounds were made at 1000 × stocks in DMSO (Sigma Aldrich #D2438), except for sodium valproate, which was dissolved in ddH2O. NPCs and neurons were generated and maintained as described above. For treatment, the stock compounds were diluted 1:1000 in NPC media (final DMSO concentration 0.1%), which was then applied to confluent NPCs or 18-day differentiated neurons derived from confluent NPC cultures for indicated time periods.
RNA was generated from each well of a 6-well treated plate of NPCs or neurons. First, media from each well was aspirated, and washed with 1 mL of dPBS. Wells were then lysed with 1 mL TRIzol Reagent (ThermoFisher #11,596,026). Wells were then incubated at room temperature for 5 min, and then RNA was extracted using the DirectZol RNA MiniPrep Kit (Zymo Research #R2052). RNA was stored at − 80 °C until further use. cDNA was generated using the High-Capacity cDNA synthesis Kit with RNase inhibitor (ThermoFisher #4,368,814) using 1000–1200 ng RNA per reaction. cDNA was either used immediately or stored at -20 °C until use, where it was then diluted 1:4 with DNase/RNase-free water (Invitrogen #10,977–015).
qPCR was conducted using the Roche 480 Light Cycler in a 384-well plate. To each well was added 5 μL of TaqMan 2X Gene Expression Master Mix (ThermoFisher #4,369,510), 0.5 μL of 20X TaqMan primer probe (ThermoFisher, GRN: Hs00963707_g1, GAPDH: Cat.#432924E), 0.5 μL of DNase/RNase-free H2O, and 4 μL of above diluted cDNA. Results were normalized to GAPDH, and replicate mean values and standard error of the mean are reported.
`COc1cc2nc(N3CCCN(C)CC3)nc(NC3CCN(Cc4ccccc4)CC3)c2cc1OC` [BIX01294] was tested, and the “GRN Fold-change (Norm. to GAPDH) ± Std. Error” value was 0.80 ± 0.04. For `CN(C)Cc1c(C(=O)NCCOc2ccc(C(=O)NO)cc2)oc2ccccc12` [PCI-24781], the “GRN Fold-change (Norm. to GAPDH) ± Std. Error” value was 3.68 ± 0.27. With `CCn1cc(-c2ccnc3[nH]c(-c4cccc(CN(C)C)c4)cc23)c(-c2ccc(NC(=O)N(C)C)cc2)n1` [GSK1070916] the “GRN Fold-change (Norm. to GAPDH) ± Std. Error” value was 1.45 ± 0.

Same assay, conditions: human NPCs, 24 h, dose 10 µM, relative to DMSO
In the case of `O=C(CCCCCCNC(=O)c1cnc(N(c2ccccc2)c2ccccc2)nc1)NO` [ACY-1215], the “GRN Fold-change (Norm. to GAPDH) ± Std. Error” value is reported as 3.63 ± 0.57. In the case of `O=C(NC1CC1)c1cc(-c2cccs2)on1` [Compound Z220650400], the “GRN Fold-change (Norm. to GAPDH) ± Std. Error” value is reported as 1.17 ± 0.10. For `COC1CCC(C(=O)c2ccc3nc4c(cc3c2)CCCO4)CC1` (stereo not shown) [JNJ16259685], the “GRN Fold-change (Norm. to GAPDH) ± Std. Error” value was 1.00 ± 0.10. In the case of `NNCCc1ccc(NC(=O)CCCc2ccccc2)cc1` [Bizine], the “GRN Fold-change (Norm. to GAPDH) ± Std. Error” value is reported as 0.92 ± 0.12. `Cc1c(OCC(F)(F)F)ccnc1C[S+]([O-])c1nc2ccccc2[nH]1` (stereo not shown) [Lanosoprazole] was tested, and the “GRN Fold-change (Norm. to GAPDH) ± Std. Error” value was 1.37 ± 0.23. `CCOC(=O)CCNc1cc(N2CCc3ccccc3CC2)nc(-c2ccccn2)n1` [GSK-J4] was tested, and the “GRN Fold-change (Norm. to GAPDH) ± Std. Error” value was 0.76 ± 0.03. With `CCOC(=O)Nc1cc(-c2ccc(C)c(NS(C)(=O)=O)c2)nn2c(C)nnc12` [Bromosporine, bromosporine] the “GRN Fold-change (Norm. to GAPDH) ± Std. Error” value was 3.44 ± 0.25. With `c1ccc([C@@H]2C[C@H]2NC2CCNCC2)cc1` [GSK-LSD1] the “GRN Fold-change (Norm. to GAPDH) ± Std. Error” value was 0.96 ± 0.11. In the case of `N#CC[C@H](C1CCCC1)n1cc(-c2ncnc3[nH]ccc23)cn1` [Ruxolitinib], the “GRN Fold-change (Norm. to GAPDH) ± Std. Error” value is reported as 1.26 ± 0.04. For `O=C(Nc1c(Cl)cncc1Cl)c1ccc(OC(F)F)c(OCC2CC2)c1` [Roflumilast], the “GRN Fold-change (Norm. to GAPDH) ± Std. Error” value was 1.01 ± 0.09. For (-)-Eseroline fumarate, the “GRN Fold-change (Norm. to GAPDH) ± Std. Error” value was 1.10 ± 0. With `Cc1cc(C)c(CNC(=O)c2cc(-c3ccc(CN4CCOCC4)cc3)cc3c2cnn3C2CCCC2)c(=O)[nH]1` [EPZ005687] the “GRN Fold-change (Norm. to GAPDH) ± Std. Error” value was 1.18 ± 0.10. In the case of `Cc1c[nH]c(-c2cnc(NCCNc3ccc(C#N)cn3)nc2-c2ccc(Cl)cc2Cl)n1` [CHIR-99021], the “GRN Fold-change (Norm. to GAPDH) ± Std. Error” value is reported as 0.79 ± 0.06. In the case of `Cn1cc(-c2ccncc2)c(-c2ccc(OCc3ccc4ccccc4n3)cc2)n1` [PF-2545920], the “GRN Fold-change (Norm. to GAPDH) ± Std. Error” value is reported as 1.29 ± 0.16.

Same assay, conditions: human NPCs, 24 h, dose 10 µM, relative to DMSO; listed as bromosporine
In the case of `CCOC(=O)Nc1cc(-c2ccc(C)c(NS(C)(=O)=O)c2)nn2c(C)nnc12` [Bromosporine, bromosporine], the “GRN Fold-change (Norm. to GAPDH) ± Std. Error” value is reported as “active enhancers of GRN mRNA”.

Same assay, conditions: human NPCs, 24 h, dose 25 µM, relative to DMSO
In the case of (-)-Eseroline fumarate, the “GRN Fold-change (Norm. to GAPDH) ± Std. Error” value is reported as 0.79 ± 0.46. `CNC(=O)Oc1ccc2c(c1)[C@]1(C)CCN(C)[C@@H]1N2C` [Eserine] was tested, and the “GRN Fold-change (Norm. to GAPDH) ± Std. Error” value was 0.73 ± 0.15.

What follows are molecules tested on PGRN-Luc (assay: HMC3 PGRN-luciferase reporter assay). Conditions: HMC3 PGRN-Luc cells, 20 h.
Type: cell-based, human
Experimental: HMC3 PGRN-Luc cells were trypsinized from confluent T-75 flasks and re-suspended in HMC-3 media at 150,000–200,000 cells/mL. 30 µL of cell suspension was then seeded onto each well of black, 384-well clear-bottom plates (Corning 3712) using the Multidrop Combi (Thermo Fisher). Cells were allowed to adhere to plates in the incubator at 37 °C/5% CO2 for 6–8 h. After 6–8 h, compounds were added to each well using the D300e (Tecan) compound dispenser, and all wells were DMSO-normalized (0.3%). Cells were allowed to incubate with compounds for indicated timeframes.
Plates were removed from the incubator and allowed to cool to RT. 15 µL of media was removed from each well using a multichannel pipette and added to separate Corning 3712 plates for a read of “secreted” PGRN. To both the media-containing plates as well as the cell-containing plates (with 15 µL media remaining) is then added 15 µL of active luminescence reagent (Thermo 18,636) which was generated according to manufacturer’s instructions. Plates were allowed to nutate at RT for 15 min prior to reading using the EnVision (PerkinElmer). For calculation of the internal PGRN-Luc signal, the secreted signal (15 µL media) was subtracted from the signal of the cell-containing plates (with 15 µL media remaining). For “total” PGRN-Luc signal, a sample of media was not aliquoted into a separate plate, and instead, 30 µL of active luminescence reagent was added directly to each well.
For the mivebresib and panobinostat time-course experiment, the above procedure was followed, with the exception that cells were seeded at 66,600 cells/mL in 30 µL media, and allowed to grow overnight prior to compound addition for the indicated timeframes.
In the case of `O=C(CCCCC[C@@H]1NC(=O)[C@H]2CCCCN2C(=O)[C@H](Cc2ccccc2)NC(=O)[C@H](Cc2ccccc2)NC1=O)C1CO1` (stereo partly shown) [trapoxin A] (cyclo(FF[dPip][Aoe(9ξ)])), the “enhancement of internal PGRN-Luc signal” value is reported as “able to enhance both internal and secreted PGRN at sub-µM concentrations” and the “enhancement of secreted PGRN-Luc signal” value is reported as “able to enhance both internal and secreted PGRN at sub-µM concentrations”. In the case of `CC(/C=C/C(=O)NO)=C\[C@@H](C)C(=O)c1ccc(N(C)C)cc1` [trichostatin A], the “enhancement of internal PGRN-Luc signal” value is reported as “able to enhance both internal and secreted PGRN at sub-µM concentrations” and the “enhancement of secreted PGRN-Luc signal” value is reported as “able to enhance both internal and secreted PGRN at sub-µM concentrations”. In the case of `CC(=O)Nc1ccc(C(=O)Nc2ccccc2N)cc1` [CI-994], the “enhancement of secreted PGRN-Luc signal” value is reported as “either weakly or entirely unable to enhance secreted PGRN”.

The molecules below were run on PGRN protein levels (assay: PGRN quantification (Jess) in human NPCs). Conditions: 100 nM, 24 h.
Type: cell-based
Experimental: PGRN capillary gel electrophoresis experiments were performed using Jess (Bio-Techne) and data were processed and analyzed using Compass for Simple Western software (version 6.0). Runs were conducted using EZ Standard Pack 1 12-230 kDa (Bio-Techne PS-ST01EZ-8), 12-230 kDa pre-filled plates (PS-PP03), 12-230 kDa separation module (SMW004), anti-rabbit HRP detection ([…]-001), and total protein detection modules (DM-TP01, biotin labeling reagent 042-973) according to the manufacturer's instructions, and with anti-PGRN primary (Abcam ab208777) diluted 1:50 in milk-free antibody dilution buffer (043-524). […] All intensity quantifications are normalized to the total protein assay quantification unless otherwise indicated. NPCs were cultured normally in 6-well plates as described previously. Upon reaching confluency, DMSO or MLN-4924 (Cayman #15,217, 10 mM stock in DMSO) were diluted 1:5000 into NPC media with growth factors. 1 mL of media was aspirated from the cell cultures, and 1 mL of MLN-4924 or DMSO dilutions were then added to respective wells (final well concentration: 1 μM MLN-4924 in select wells, 0.01% DMSO for all wells). Plates returned to the incubator. […] Plates returned to the incubator. After 4 h, to the indicated wells is directly added 1 μL 2 mM mivebresib (MedChem Express HY-100015) in DMSO for a final concentration of 1 μM, or 1 μL DMSO. All plates were returned to the incubator overnight. The next day, 24 h from the addition of mivebresib, plates were removed from the incubator, and all wells were washed with 2 mL PBS, and then lysed in 300 μL M-PER lysis buffer with protease inhibitors. Cells were allowed to lyse for 15 min at 4 °C with light nutation, and then lysate was transferred to a 1.5-mL Eppendorf tube which was then spun down at 20 k rcf at 4 °C for 10 min. 200 μL of supernatant was then transferred to a fresh, labeled Eppendorf rube, which was then stored at - 20 °C prior to further analysis. Sample concentration was quantified using the BCA assay as described above, and normalized to 250 μg/mL in M-PER lysis buffer prior to PGRN quantification using the Jess. NPCs were cultured normally as described previously. 6-well plates were seeded at 300,000 cells/well in 2 mL of NPC media with EGF, bFGF, and heparin as described above. Cells were allowed to grow to confluency for three nights at 37 °C with 5% CO2. […] These solutions were then diluted 1:10 in NPC media with growth factors containing 0.2% DMSO to make 100 nM compound solutions. Treatment wells were washed with 2 mL PBS prior to addition of 2 mL NPC media with growth factors containing compound (or DMSO only) at indicated concentrations (3 replicates per condition, 6 DMSO replicates). Plates were then allowed to incubate at 37 °C with 5% CO2 for 24 h. After 24 h, cells were removed from the incubator, washed with 1 mL PBS, and then lysed with 500 μL M-PER lysis buffer (Thermo Fisher #78,501) with 1 cOmplete Mini, EDTA-free protease inhibitor added (Sigma-Aldrich#11,836,170,001) per 15 mL lysis buffer. Plates were allowed to nutate at 4 °C for 15 min before transferring the lysate to 1.5 mL Eppendorf tubes, which were then spun down at 20,000 rcf at 4 °C for 10 min. 400 μL of the supernatant was then transferred to fresh 1.5-mL Eppendorf tubes, which were then frozen down at - 80 °C prior to further use. Samples were removed from the - 80 °C and concentrations were determined via BCA assay (Thermo Scientific #23,227) using a pre-diluted BSA standard (Life Technologies #23,208) on a 96-well polystyrene plate (Thermo Fisher #12,565,500). Samples were diluted to 0.25 mg/mL using M-PER lysis buffer prior to PGRN quantification using the Jess. NPCs were cultured as described above, and seeded onto coated 24-well plates at 150,000 cells/well in 1 mL NPC media with growth factors. Plates were allowed to grow to ~ 100% confluency for three nights at 37 °C with 5% CO2. […] Plates were allowed to incubate overnight at 37 °C with 5% CO2 for 24 h. […]
For `CCNC(=O)c1cc2c(-c3cc(C(C)(C)O)ccc3Oc3c(C)cc(F)cc3C)cn(C)c(=O)c2[nH]1` [ABBV-744], the “enhancement of PGRN protein levels” value was ~ 30%. In the case of `COCc1nc2cnc3cc(-c4c(C)noc4C)c(OC[C@H]4CCNC4)cc3c2n1[C@H](C)c1ccccc1` [iBET-BD1], the “enhancement of PGRN protein levels” value is reported as “unable to enhance PGRN protein levels”.

Same assay, conditions: 24 h, various doses
With `CCNC(=O)c1cc2c(-c3cc(C(C)(C)O)ccc3Oc3c(C)cc(F)cc3C)cn(C)c(=O)c2[nH]1` [ABBV-744] the “PGRN protein levels, dose-response” value was “mid to high nM concentrations were sufficient to enhance PGRN protein levels”.
